The values that follow come from patent publication US20260183369A1, “CHEMERIN-CONTAINING FORMULATION FOR TREATING DRY EYE DISEASE” (OKYO Pharma Limited, priority 2022, published 2026).

The data set can be described thus: solubility and pH stability of OK-101 in sodium phosphate buffer. The data set is classed as physicochemical. The note with it: read-out: concentration of OK-101 observed (solubility). How it is done:
The solubility and pH stability of OK-101 at a target concentration of 0.05% w/v, was tested in either 50 mM or 100 mM sodium phosphate buffer. For each concentration of sodium phosphate buffer, the solubility and pH stability were determined in three separate buffer batches, each with a different starting pH.

Molecules are shown by their SMILES. Like-named read-outs stand apart in the source and are kept apart here. Square brackets hold non-standard residues; d marks the D form. Peptide text beside a SMILES is read from it. * marks the point of attachment. PEG8 = NCCOCCOCCOCCOCCOCCOCCOCCOCCC(=O)O; Palmitoyl = CCCCCCCCCCCCCCCC(=O)*; Tic = O=C(O)[C@@H]1Cc2ccccc2CN1

Regarding `CCCCCCCCCCCCCCCC(=O)NCCOCCOCCOCCOCCOCCOCCOCCOCCC(=O)NCC(=O)NCC(=O)N[C@H](Cc1ccc(O)cc1)C(=O)N[C@@H](Cc1ccccc1)C(=O)N[C@@H](CC(C)C)C(=O)N1CCC[C@H]1C(=O)N[C@H](CO)C(=O)N[C@@H](CCC(N)=O)C(=O)N[C@@H](Cc1ccccc1)C(=O)N[C@H](C)C(=O)N1Cc2ccccc2C[C@H]1C(=O)N[C@@H](CO)C(=O)O` [OK-101] ({Palmitoyl-PEG8}-GG[dY]FLP[dS]QF[dA][Tic]S-OH), the solubility reads like this: (three batches of 50 mM sodium phosphate buffer) above 25 mg/mL; (three batches of 100 mM sodium phosphate buffer) above 30 mg/mL.
